The values that follow come from US20140005163A1 (NOVARTIS AG, priority 2010, published 2014).

Each structure is given as a SMILES string. Several values for one entry are separate records, joined by “and”; a condition that tells them apart may be missing. Equal values may be shown once.

Holding throughout (format): biochemical
Assay [1] has as its target T1, PI3K beta (Homo sapiens, UniProt P42338).
T1 construct: for the full-length p110-b subunit are generated and fused by overlapping PCR; p85(iSH2) fusion partner (see partner chain) (N); His tag (C); made in house; host or cells: baculovirus; Tn5 (Trichoplusia ni) or TiniPro insect cells
The assay is described as follows: PI3K beta kinase assay (Kinase-Glo luminescence). A digest of the protocol:
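Residual ATP after a 60 min room-temperature reaction is quantified by Kinase-Glo luminescence. Enzyme: 25 nM BV-949 (p85 iSH2–linker–full-length p110β); substrates 1 μM ATP, 10 μg/mL PI; buffer Tris pH 7.5, MgCl2, NaCl, CHAPS, DTT. Eight concentrations per compound, four-parameter logistic IC50.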
For orientation: Kinase-Glo measures the ATP left after a reaction by luminescence.

Assay [2] addresses T2, PI3K delta (Homo sapiens, UniProt O00329).
T2 construct: for the full-length p110-d subunit are generated and fused by overlapping PCR; p85(iSH2) fusion partner (see partner chain) (N); His tag (C); made in house; host or cells: baculovirus; Tn5 (Trichoplusia ni) or TiniPro insect cells
Description: PI3K delta kinase assay (Kinase-Glo luminescence). A digest of the protocol:
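Kinase-Glo luminescence read-out of ATP remaining after 60 min at RT. Enzyme: 10 nM BV1060 (p85 iSH2–p110δ fusion, His-tagged); substrate 10 μg/mL PI, ATP 1 μM final; Tris pH 7.5 buffer with MgCl2, NaCl, CHAPS, DTT. IC50 from 4-parameter logistic fit over 8 concentrations.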

The target in assay [3] is T3, PI3K gamma (Homo sapiens, UniProt P48736).
T3 construct: His tag (C); made in house; host or cells: baculovirus (pVL1393); Tn5 or TiniPro insect cells; construct from Roger Williams lab, MRC LMB
Description: PI3K gamma kinase assay (Kinase-Glo luminescence). A digest of the protocol:
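PI3Kγ (150 nM) reaction run 120 min at room temperature with phosphatidylinositol substrate (10 μg/mL) and ATP (1 μM) in Tris pH 7.5 buffer containing MgCl2, NaCl, CHAPS and DTT. Remaining ATP detected by Kinase-Glo luminescence; 8 concentrations per compound, IC50 from 4-parameter curve fitting.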

The target of assay [4] is T4, PI3K alpha (Homo sapiens, UniProt P42336).
T4 construct: p85(iSH2) fusion partner (see partner chain) (N); His tag (C); made in house; host or cells: baculovirus; Tn5 (Trichoplusia ni) or TiniPro insect cells
Description: PI3K alpha kinase assay (Kinase-Glo luminescence). The method in brief: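 Read-out: Kinase-Glo luminescence of ATP left after 60 min at room temperature. Conditions: 10 nM PI3Kα (EMV B1075), 1 μM ATP, 10 μg/mL PI substrate, Tris pH 7.5 buffer with MgCl2, NaCl, CHAPS and DTT. IC50s fitted with a four-parameter logistic model.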

T3 sequence (P48736 144-1102 limits assumed): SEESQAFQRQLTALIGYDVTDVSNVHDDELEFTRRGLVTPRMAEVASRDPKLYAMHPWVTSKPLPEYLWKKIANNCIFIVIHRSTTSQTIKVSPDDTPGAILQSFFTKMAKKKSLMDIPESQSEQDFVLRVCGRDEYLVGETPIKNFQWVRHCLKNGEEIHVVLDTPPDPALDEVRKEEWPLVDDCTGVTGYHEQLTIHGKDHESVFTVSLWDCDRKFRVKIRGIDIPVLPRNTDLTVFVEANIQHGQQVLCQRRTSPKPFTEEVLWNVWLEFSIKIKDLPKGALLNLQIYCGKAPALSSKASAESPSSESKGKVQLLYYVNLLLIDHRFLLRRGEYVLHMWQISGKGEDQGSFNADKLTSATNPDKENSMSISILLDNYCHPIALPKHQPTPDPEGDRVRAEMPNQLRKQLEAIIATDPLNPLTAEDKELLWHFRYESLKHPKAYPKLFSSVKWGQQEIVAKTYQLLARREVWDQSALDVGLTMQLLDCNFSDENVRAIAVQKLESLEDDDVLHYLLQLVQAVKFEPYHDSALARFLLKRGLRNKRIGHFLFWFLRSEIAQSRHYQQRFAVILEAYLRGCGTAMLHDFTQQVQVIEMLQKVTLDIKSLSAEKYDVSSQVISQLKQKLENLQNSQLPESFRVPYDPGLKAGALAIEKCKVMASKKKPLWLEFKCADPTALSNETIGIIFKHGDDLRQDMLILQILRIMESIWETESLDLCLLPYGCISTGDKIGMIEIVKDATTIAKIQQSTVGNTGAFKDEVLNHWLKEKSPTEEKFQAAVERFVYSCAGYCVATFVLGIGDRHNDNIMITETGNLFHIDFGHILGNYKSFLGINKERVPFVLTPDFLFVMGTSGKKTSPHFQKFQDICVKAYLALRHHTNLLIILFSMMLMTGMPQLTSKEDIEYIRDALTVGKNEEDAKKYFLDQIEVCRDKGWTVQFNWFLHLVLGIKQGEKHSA
T4 sequence (P42336 with tags, fused parts or gaps limits assumed): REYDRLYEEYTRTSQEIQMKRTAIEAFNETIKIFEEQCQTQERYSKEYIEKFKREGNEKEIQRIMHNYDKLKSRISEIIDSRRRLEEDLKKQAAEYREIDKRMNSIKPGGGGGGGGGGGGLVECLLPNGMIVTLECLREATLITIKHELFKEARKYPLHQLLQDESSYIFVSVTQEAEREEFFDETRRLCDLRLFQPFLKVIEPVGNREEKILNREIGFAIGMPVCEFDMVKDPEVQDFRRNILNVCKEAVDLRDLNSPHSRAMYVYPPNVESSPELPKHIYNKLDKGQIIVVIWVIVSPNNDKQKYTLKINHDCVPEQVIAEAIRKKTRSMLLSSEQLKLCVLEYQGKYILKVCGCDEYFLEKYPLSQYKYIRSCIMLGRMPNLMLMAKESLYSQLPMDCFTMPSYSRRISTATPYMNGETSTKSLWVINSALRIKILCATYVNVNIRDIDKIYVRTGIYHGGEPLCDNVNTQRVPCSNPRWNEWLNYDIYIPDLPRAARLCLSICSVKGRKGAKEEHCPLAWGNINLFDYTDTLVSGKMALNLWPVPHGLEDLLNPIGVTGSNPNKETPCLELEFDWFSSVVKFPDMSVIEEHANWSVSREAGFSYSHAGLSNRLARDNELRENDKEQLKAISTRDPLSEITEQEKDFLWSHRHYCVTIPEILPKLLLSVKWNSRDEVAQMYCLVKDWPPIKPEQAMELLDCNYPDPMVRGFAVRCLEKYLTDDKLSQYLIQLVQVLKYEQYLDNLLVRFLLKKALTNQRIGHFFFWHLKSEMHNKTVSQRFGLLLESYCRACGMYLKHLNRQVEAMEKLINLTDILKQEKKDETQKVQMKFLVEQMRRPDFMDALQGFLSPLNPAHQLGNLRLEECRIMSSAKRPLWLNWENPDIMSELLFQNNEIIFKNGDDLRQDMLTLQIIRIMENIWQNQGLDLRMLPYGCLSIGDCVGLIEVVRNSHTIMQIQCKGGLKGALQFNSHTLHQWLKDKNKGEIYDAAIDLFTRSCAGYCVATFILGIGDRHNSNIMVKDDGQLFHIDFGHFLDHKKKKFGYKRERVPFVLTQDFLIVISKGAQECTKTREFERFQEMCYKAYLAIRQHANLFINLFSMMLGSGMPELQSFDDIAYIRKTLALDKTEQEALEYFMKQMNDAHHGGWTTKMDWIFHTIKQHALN
T1 sequence (P42338 with tags, fused parts or gaps limits assumed): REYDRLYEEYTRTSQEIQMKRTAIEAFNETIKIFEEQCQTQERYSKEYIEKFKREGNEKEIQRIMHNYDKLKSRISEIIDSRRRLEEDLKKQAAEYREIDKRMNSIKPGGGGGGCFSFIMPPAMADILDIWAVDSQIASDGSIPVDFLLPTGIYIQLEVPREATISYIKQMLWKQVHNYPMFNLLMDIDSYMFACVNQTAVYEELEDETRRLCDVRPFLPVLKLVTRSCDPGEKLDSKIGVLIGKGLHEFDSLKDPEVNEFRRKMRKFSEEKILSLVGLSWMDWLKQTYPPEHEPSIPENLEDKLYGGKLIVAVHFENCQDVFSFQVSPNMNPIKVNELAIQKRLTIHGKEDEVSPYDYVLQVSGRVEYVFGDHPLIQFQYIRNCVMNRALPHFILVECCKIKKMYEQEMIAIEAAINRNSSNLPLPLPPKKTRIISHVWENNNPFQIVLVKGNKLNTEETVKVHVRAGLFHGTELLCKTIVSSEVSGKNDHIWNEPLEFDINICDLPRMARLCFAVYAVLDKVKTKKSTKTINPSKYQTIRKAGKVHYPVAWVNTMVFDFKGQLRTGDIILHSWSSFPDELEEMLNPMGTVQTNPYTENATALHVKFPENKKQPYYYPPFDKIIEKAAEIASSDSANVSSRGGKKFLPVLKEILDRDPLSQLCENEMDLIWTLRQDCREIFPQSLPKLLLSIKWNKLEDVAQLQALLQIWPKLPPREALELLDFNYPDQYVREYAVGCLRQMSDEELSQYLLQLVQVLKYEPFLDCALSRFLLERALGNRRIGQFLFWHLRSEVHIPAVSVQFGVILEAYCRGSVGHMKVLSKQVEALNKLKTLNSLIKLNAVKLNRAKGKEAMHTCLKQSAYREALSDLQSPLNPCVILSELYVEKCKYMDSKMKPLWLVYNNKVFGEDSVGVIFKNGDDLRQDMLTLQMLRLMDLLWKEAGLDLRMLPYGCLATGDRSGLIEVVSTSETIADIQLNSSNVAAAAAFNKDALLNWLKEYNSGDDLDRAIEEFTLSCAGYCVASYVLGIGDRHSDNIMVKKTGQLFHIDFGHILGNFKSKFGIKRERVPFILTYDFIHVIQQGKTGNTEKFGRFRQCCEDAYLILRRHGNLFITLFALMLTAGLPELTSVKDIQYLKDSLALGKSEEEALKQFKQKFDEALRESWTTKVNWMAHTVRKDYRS
T2 sequence (O00329 with tags, fused parts or gaps limits assumed): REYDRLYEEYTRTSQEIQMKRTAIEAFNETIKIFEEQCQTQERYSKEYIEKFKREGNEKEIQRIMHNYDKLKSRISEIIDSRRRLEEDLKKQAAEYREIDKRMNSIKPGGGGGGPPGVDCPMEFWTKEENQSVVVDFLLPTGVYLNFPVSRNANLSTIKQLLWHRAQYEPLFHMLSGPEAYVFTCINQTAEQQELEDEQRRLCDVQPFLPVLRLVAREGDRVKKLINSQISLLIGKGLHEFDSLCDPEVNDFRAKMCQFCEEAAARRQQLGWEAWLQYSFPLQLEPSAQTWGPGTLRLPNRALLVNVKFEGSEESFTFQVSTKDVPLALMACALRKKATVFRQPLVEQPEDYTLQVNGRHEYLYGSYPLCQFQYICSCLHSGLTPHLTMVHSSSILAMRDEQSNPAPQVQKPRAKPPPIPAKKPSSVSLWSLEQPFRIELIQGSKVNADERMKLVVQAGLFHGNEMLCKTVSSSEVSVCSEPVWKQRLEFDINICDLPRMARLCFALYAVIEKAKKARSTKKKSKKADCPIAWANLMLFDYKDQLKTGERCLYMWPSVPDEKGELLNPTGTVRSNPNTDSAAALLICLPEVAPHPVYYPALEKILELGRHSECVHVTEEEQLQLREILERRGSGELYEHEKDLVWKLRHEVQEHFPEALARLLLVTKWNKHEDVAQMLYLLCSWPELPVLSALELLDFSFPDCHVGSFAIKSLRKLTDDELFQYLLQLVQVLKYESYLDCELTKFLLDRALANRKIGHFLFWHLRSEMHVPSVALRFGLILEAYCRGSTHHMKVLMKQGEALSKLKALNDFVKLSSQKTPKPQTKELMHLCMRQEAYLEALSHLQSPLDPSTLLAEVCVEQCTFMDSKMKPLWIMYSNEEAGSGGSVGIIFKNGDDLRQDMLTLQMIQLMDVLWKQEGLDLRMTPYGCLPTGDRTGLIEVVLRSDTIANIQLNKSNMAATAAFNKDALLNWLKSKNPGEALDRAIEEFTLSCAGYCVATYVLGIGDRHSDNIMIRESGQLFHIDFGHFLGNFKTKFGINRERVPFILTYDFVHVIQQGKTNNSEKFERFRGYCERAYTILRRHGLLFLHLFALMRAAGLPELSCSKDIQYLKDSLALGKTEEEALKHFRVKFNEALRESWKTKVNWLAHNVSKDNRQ

Usually IC50 stands for the concentration needed to halve the response being measured. For `COCCOc1ccc(-c2ccc3ncc4c(c3c2)n(-c2cn(C)nc2C)c(=O)n4C)cc1OC` [Example 30.1, 1-(1,3-Dimethyl-1H-pyrazol-4-yl)-8-[3-methoxy-4-(2-methoxy-ethoxy)-phenyl]-3-methyl-1,3-dihydro-imidazo[4,5-c]quinolin-2-one], the IC50 in assay [1] was 0.157 µM; in assay [2], 0.036 µM; in assay [3], 0.178 µM; in assay [4], 0.022 µM.

With `CCn1cc(-n2c(=O)n(C)c3cnc4ccc(-c5cncc(OC(C)C)c5)cc4c32)c(C)n1` [Example 58.4, 1-(1-Ethyl-3-methyl-1H-pyrazol-4-yl)-8-(5-isopropoxy-pyridin-3-yl)-3-methyl-1,3-dihydro-imidazo[4,5-c]quinolin-2-one], the IC50 in assay [1] is 0.029 µM; in assay [2], 0.012 µM; in assay [3], 0.253 µM; in assay [4], 0.014 µM.

Take `COCCn1c(=O)n(C)c2ncc(-c3ccc4ncc5c(c4c3)n(-c3cn(C)nc3C)c(=O)n5C)cc21` [Example 69, 1-(1,3-Dimethyl-1H-pyrazol-4-yl)-8-[1-(2-methoxy-ethyl)-3-methyl-2-oxo-2,3-dihydro-1H-imidazo[4,5-b]pyridin-6-yl]-3-methyl-1,3-dihydro-imidazo[4,5-c]quinolin-2-one]: the IC50 in assay [1] is 0.129 µM; in assay [2] it was 0.036 µM; in assay [3] it was 0.646 µM; in assay [4] it was 0.039 µM.

Turning to `CCn1c(=O)n(-c2cn(C)nc2C)c2c3nc(-c4ccc(OC)c(OC)c4)ccc3ncc21` [Example 251, 8-(3,4-Dimethoxy-phenyl)-1-(1,3-dimethyl-1H-pyrazol-4-yl)-3-ethyl-1,3-dihydro-1,3,5,9-tetraaza-cyclopenta[a]naphthalen-2-one], the IC50 in assay [1] was determined as 0.504 µM; in assay [2], 0.17 µM; in assay [3], 0.212 µM; in assay [4] it was 0.028 µM.

For `Cc1nn(C(C)C)cc1-n1c(=O)n(C)c2cnc3ccc(-c4ccc(CO)nc4)cc3c21` [Example 16.3, 8-(6-hydroxymethyl-pyridin-3-yl)-1-(1-isopropyl-3-methyl-1H-pyrazol-4-yl)-3-methyl-1,3-dihydro-imidazo[4,5-c]quinolin-2-one], the 50% inhibitory concentration (IC50) is 0.404 µM in assay [1]; 0.027 µM in assay [2]; 0.408 µM and 0.359 µM in assay [3]; 0.059 µM in assay [4].

For `Cc1ccc(-c2ccc3ncc4c(c3c2)n(-c2cn(C)nc2C)c(=O)n4C)cn1` [Example 7.2, 1-(1,3-Dimethyl-1H-pyrazol-4-yl)-3-methyl-8-(6-methyl-pyridin-3-yl)-1,3-dihydro-imidazo[4,5-c]quinolin-2-one], the IC50 in assay [1] came out at 0.066 µM; in assay [2], 0.013 µM; in assay [3] it was 0.191 µM; in assay [4], 0.014 µM.

As for `CCOc1ncc(-c2ccc3ncc4c(c3c2)n(-c2cn(C)nc2C)c(=O)n4C)cn1` [Example 52, 1-(1,3-Dimethyl-1H-pyrazol-4-yl)-8-(2-ethoxy-pyrimidin-5-yl)-3-methyl-1,3-dihydro-imidazo[4,5-c]quinolin-2-one], the IC50 in assay [1] came to 0.343 µM; in assay [2], 0.037 µM; in assay [3] it was 0.597 µM; in assay [4], 0.056 µM.

`CCn1cc(-n2c(=O)n(C)c3cnc4ccc(-c5ccc(N(C)C)nc5)cc4c32)c(C)n1` [Example 4.2, 8-(6-Dimethylamino-pyridin-3-yl)-1-(1-ethyl-3-methyl-1H-pyrazol-4-yl)-3-methyl-1,3-dihydro-imidazo[4,5-c]quinolin-2-one]: the IC50 was determined as 0.225 µM in assay [1], 0.006 µM in assay [2], 0.242 µM in assay [3] and 0.015 µM in assay [4].

As for `COCCOc1cncc(-c2ccc3ncc4c(c3c2)n(-c2cn(C)nc2C)c(=O)n4C)c1` [Example 59.1, 1-(1,3-Dimethyl-1H-pyrazol-4-yl)-8-[5-(2-methoxy-ethoxy)-pyridin-3-yl]-3-methyl-1,3-dihydro-imidazo[4,5-c]quinolin-2-one], the IC50 turned out to be 0.089 µM in assay [1], 0.091 µM in assay [2], 0.179 µM in assay [3] and 0.018 µM in assay [4].

Take `Cc1nn(CC(=O)N(C)C)cc1-n1c(=O)n(C)c2cnc3ccc(-c4ccc(-n5cccn5)cc4)cc3c21` [Example 51.2, N,N-Dimethyl-2-{3-methyl-4-[3-methyl-2-oxo-8-(4-pyrazol-1-yl-phenyl)-2,3-dihydro-imidazo[4,5-c]quinolin-1-yl]-pyrazol-1-yl}-acetamide]: the IC50 in assay [2] came to 0.453 µM; in assay [3] it was 0.138 µM; in assay [4], 0.008 µM.

Consider `Cc1nn(C(C)C)cc1-n1c(=O)n(C)c2cnc3ccc(-c4ccc(N5CCC5)nc4)cc3c21` [Example 5.2, 8-(6-Azetidin-1-yl-pyridin-3-yl)-1-(1-isopropyl-3-methyl-1H-pyrazol-4-yl)-3-methyl-1,3-dihydro-imidazo[4,5-c]quinolin-2-one], for which the IC50 in assay [2] is 0.053 µM; in assay [3], 0.227 µM; in assay [4], 0.034 µM.

`CCOc1ccc(-c2ccc3ncc4c(c3c2)n(-c2cn(CC(=O)N3CCOCC3)nc2C)c(=O)n4C)cn1` [Example 3.10, 8-(6-Ethoxy-pyridin-3-yl)-3-methyl-1-[3-methyl-1-(2-morpholin-4-yl-2-oxo-ethyl)-1H-pyrazol-4-yl]-1,3-dihydro-imidazo[4,5-c]quinolin-2-one]: the IC50 in assay [2] came to 0.431 µM; in assay [3] it was 0.867 µM; in assay [4], 0.091 µM.

As for `CCN(C)c1cncc(-c2ccc3ncc4c(c3c2)n(-c2cn(C)nc2C)c(=O)n4C)c1` [Example 176, 1-(1,3-Dimethyl-1H-pyrazol-4-yl)-8-[5-(ethyl-methyl-amino)-pyridin-3-yl]-3-methyl-1,3-dihydro-imidazo[4,5-c]quinolin-2-one], the IC50 in assay [1] is 0.033 µM; in assay [2], 0.015 µM; in assay [4], 0.017 µM.

On to `COc1ncc(-c2ccc3ncc4c(c3c2)n(-c2cn(C)nc2Cl)c(=O)n4C)cn1` [Example 17.3, 1-(3-Chloro-1-methyl-1H-pyrazol-4-yl)-8-(2-methoxy-pyrimidin-5-yl)-3-methyl-1,3-dihydro-imidazo[4,5-c]quinolin-2-one], for which the IC50 was 0.037 µM in assay [1], 0.005 µM in assay [2] and 0.009 µM in assay [4].

Take `CCn1cc(-n2c(=O)n(C)c3cnc4ccc(-c5cnc(F)c(NC)c5)cc4c32)c(C)n1` [Example 150.1, 1-(1-Ethyl-3-methyl-1H-pyrazol-4-yl)-8-(6-fluoro-5-methylamino-pyridin-3-yl)-3-methyl-1,3-dihydro-imidazo[4,5-c]quinolin-2-one]: the half-inhibitory concentration (IC50) in assay [1] was determined as 0.017 µM; in assay [2], 0.008 µM; in assay [4] it was 0.007 µM.

With `CCOc1cncc(-c2ccc3ncc4c(c3c2)n(-c2c(C)cnn2C)c(=O)n4C)c1` [Example 56.5, 1-(2,4-Dimethyl-2H-pyrazol-3-yl)-8-(5-ethoxy-pyridin-3-yl)-3-methyl-1,3-dihydro-imidazo[4,5-c]quinolin-2-one], the concentration for half-maximal inhibition (IC50) in assay [1] was found to be 0.193 µM; in assay [2], 0.196 µM; in assay [4] it was 0.155 µM.

With `CCOCc1cc(-c2ccc3ncc4c(c3c2)n(-c2cn(C)nc2C)c(=O)n4C)cnc1N` [Example 166.1, 8-(6-Amino-5-ethoxymethyl-pyridin-3-yl)-1-(1,3-dimethyl-1H-pyrazol-4-yl)-3-methyl-1,3-dihydro-imidazo[4,5-c]quinolin-2-one], the IC50 turned out to be 0.037 µM in assay [1], 0.003 µM in assay [2] and 0.009 µM in assay [4].

Turning to `CCc1ncc(-c2ccc3ncc4c(c3c2)n(-c2cn(C)nc2C)c(=O)n4C)cc1NC(C)C` [Example 162, 1-(1,3-Dimethyl-1H-pyrazol-4-yl)-8-(6-ethyl-5-isopropylamino-pyridin-3-yl)-3-methyl-1,3-dihydro-imidazo[4,5-c]quinolin-2-one], the IC50 in assay [1] was 0.02 µM; in assay [2], 0.01 µM; in assay [4], 0.008 µM.

Take `CCNc1cc(-c2ccc3ncc4c(c3c2)n(-c2cn(C(C)C)nc2C)c(=O)n4C)cnc1CO` [Example 155.3, 8-(5-Ethylamino-6-hydroxymethyl-pyridin-3-yl)-1-(1-isopropyl-3-methyl-1H-pyrazol-4-yl)-3-methyl-1,3-dihydro-imidazo[4,5-c]quinolin-2-one]: the IC50 in assay [1] was 0.046 µM; in assay [2], 0.01 µM; in assay [4] it was 0.03 µM.
